# Measurements reported in US20230255906A1, “Targeting Serpin B9 in Cancer” (The Brigham and Women`s Hospital, Inc., priority 2020, published 2023).
# System: B16 melanoma cells
# Assay: Caspase-3 activity assay (EnzChek Caspase-3 Assay Kit), caspase-3 induction in tumor cells; further: test concentration or dose not given here
# Format: cell-based, mouse
# Details: not given
# In short: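 B16 melanoma cells exposed to compounds for 24 h, lysed on ice 30 min, and lysate incubated with Z-DEVD-R110 substrate about 30 min at room temperature. Fluorescence read at ~496/520 nm against untreated-cell and no-enzyme controls; caspase-3 induction serves as surrogate for GrB activity from Sb9 inhibition.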
row,Compound,Ratio of caspase-3 activity to Formula (III)
1,"COc1cccc(-c2nc3ccc(C(=O)N(CC4CC4)CC4CCCO4)cc3o2)c1 (stereo not drawn) [N-(cyclopropylmethyl)-2-(3-methoxyphenyl)-N-(tetrahydro-2-furanylmethyl)-1,3-benzoxazole-6-carboxamide]",0.1369
2,"Cc1cc(CNC(=O)c2ccc3oc(-c4cccc(F)c4)nc3c2)nn1C [N-[(1,5-dimethyl-1H-pyrazol-3-yl)methyl]-2-(3-fluorophenyl)-1,3-benzoxazole-5-carboxamide]",0.123
3,"CCn1ccnc1CN(C)C(=O)c1ccc2nc(-c3cccc(OC)c3)oc2c1 [N-[(1-ethyl-1H-imidazol-2-yl)methyl]-2-(3-methoxyphenyl)-N-methyl-1,3-benzoxazole-6-carboxamide]",1.071
4,"CCn1ccnc1CN(C)C(=O)c1ccc2oc(-c3ccc(C(F)(F)F)cc3)nc2c1 [N-[(1-ethyl-1H-imidazol-2-yl)methyl]-N-methyl-2-[4-(trifluoromethyl)phenyl]-1,3-benzoxazole-5-carboxamide]",0.1566
5,"CCn1cc(CNC(=O)c2ccc3oc(-c4cccc(F)c4)nc3c2)cn1 [N-[(1-ethyl-1H-pyrazol-4-yl)methyl]-2-(3-fluorophenyl)-1,3-benzoxazole-5-carboxamide]",1.163
6,"COc1cccc(-c2nc3ccc(C(=O)N(C)Cc4c(C)n[nH]c4C)cc3o2)c1 [N-[(3,5-dimethyl-1H-pyrazol-4-yl)methyl]-2-(3-methoxyphenyl)-N-methyl-1,3-benzoxazole-6-carboxamide]",0.1324
7,"CCc1ccc(CN(C)C(=O)c2ccc3oc(-c4cccc(F)c4)nc3c2)nc1 [N-[(5-ethyl-2-pyridinyl)methyl]-2-(3-fluorophenyl)-N-methyl-1,3-benzoxazole-5-carboxamide]",0.1324

# Same assay, conditions: relative to compound of Formula (III)
row,Compound,"Caspase-3 induction, Normalized to Formula (III) (%)"
1,COc1cc(C(=O)NCCN(C)C)ccc1OCCC(C)C [N-[2-(dimethylamino)ethyl]-3-methoxy-4-(3-methylbutoxy)benzamide],6.8323%
2,CCOc1ccc(C(=O)NCCN(C)C)cc1O [N-[2-(dimethylamino)ethyl]-4-ethoxy-3-hydroxybenzamide],−38.5237%
3,"COc1cc(C(=O)NCCN(C)C)cc(OC)c1O [N-[2-(dimethylamino)ethyl]-4-hydroxy-3,5-dimethoxybenzamide]",−5.767%
4,"CN(C)CCNC(=O)c1cc2c(cc1O)OCO2 [N-[2-(dimethylamino)ethyl]-6-hydroxy-2H-1,3-benzodioxole-5-carboxamide]",2.3274%
5,"O=C(NCc1ccccc1)c1ccc2nc(C(F)(F)C(F)(F)F)oc2c1 [N-benzyl-2-(1,1,2,2,2-pentafluoroethyl)-1,3-benzoxazole-6-carboxamide]",−48.3904%
6,"O=C(NCc1ccccc1)c1ccc2nc(-c3cc(Cl)cc(Cl)c3)oc2c1 [N-benzyl-2-(3,5-dichlorophenyl)-1,3-benzoxazole-6-carboxamide]",−36.0528%
7,"CN(C)c1nc2c(C(=O)NCc3ccccc3)cccc2o1 [N-benzyl-2-(dimethylamino)-1,3-benzoxazole-4-carboxamide]",61.2163%
8,"CN(C)c1nc2cccc(C(=O)NCc3ccccc3)c2o1 [N-benzyl-2-(dimethylamino)-1,3-benzoxazole-7-carboxamide]",−26.8974%
9,"O=C(NCc1ccccc1)c1ccc2nc(C3CCCO3)oc2c1 (stereo not drawn) [N-benzyl-2-(oxolan-2-yl)-1,3-benzoxazole-6-carboxamide]",−34.6335%
10,"O=C(NCc1ccccc1)c1ccc2nc(C3CCCCC3)oc2c1 [N-benzyl-2-cyclohexyl-1,3-benzoxazole-6-carboxamide]",−61.2418%
11,"O=C(NCc1ccccc1)c1ccc2nc(C3CC3)oc2c1 [N-benzyl-2-cyclopropyl-1,3-benzoxazole-6-carboxamide]",−32.882%
